Counter-ions that a name gives are not always drawn.
**Q.** For `CCCCCCCC/C=C\CCCCCCCC(=O)OC[C@@H](COCc1ccccc1)OP(=O)(O)OC[C@H](N)C(=O)O` (as salt: TFA) [Example 7, (9Z)-Octadeca-9-enoic acid (2R)-2-[((2S)-2-amino-2-carboxy-ethoxy)-hydroxy-phosphoryloxy]-3-benzyloxy-propyl ester], which melting point is on record?
**A.** The melting point was 118.5 to 122 °C.

**Q.** With `CCCCCCCCCCCOc1ccccc1CCC(=O)O[C@@H]1COCC[C@H]1OP(=O)(O)OC[C@H](N)C(=O)O` (as salt: TFA) [Example 9, (2S)-2-amino-3-(hydroxyl-{(3R,4R)-3-[3-(2-undecyloxy-phenyl)-propionyloxy]-tetrahydropyran-4-yloxy}-phosphoryloxy)-propionic acid] as the compound, how does the melting point read?
**A.** Its melting point is 122 to 123 °C.

**Q.** Which melting point does the source give for `CCCCCCCCCCCOc1ccccc1CCC(=O)O[C@H]1CCOC[C@@H]1OP(=O)(O)OC[C@H](N)C(=O)O` (as salt: TFA) [Example 10, (2S)-2-amino-3-(hydroxy-{(3S,4S)-4-[3-(2-undecyloxy-phenyl)-propionyloxy]-tetrahydro-pyran-3-yloxy}-phosphoryloxy)-propionic acid] here?
**A.** The melting point was 96.5 to 98.5 °C.

**Q.** With `CCCCCCCCCCCOc1ccccc1CCC(=O)O[C@H]1COCC[C@@H]1OP(=O)(O)OC[C@H](N)C(=O)O` (as salt: TFA) [Example 11, (2S)-2-amino-3-(hydroxy-{(3S,4S)-3-[3-(2-undecyloxy-phenyl)-propionyloxy]-tetrahydro-pyran-4-yloxy}-phosphoryloxy)-propionic acid] as the compound, how does the melting point read?
**A.** The melting point was 132.8 to 134.8 °C.

**Q.** With `CCCCCCCCCCCOc1ccc(C(C)(C)C)cc1CCC(=O)O[C@H]1COCC[C@@H]1OP(=O)(O)OC[C@H](N)C(=O)O` (as salt: TFA) [Example 12, (2S)-2-amino-3-({(3S,4S)-3-[3-(5-tert-butyl-2-undecyloxy-phenyl)-propionyloxy]-tetrahydro-pyran-4-yloxy}-hydroxy-phosphoryloxy)-propionic acid] as the compound, how does the melting point read?
**A.** Its melting point is 144 to 144.5 °C.

**Q.** For `CCCCCCCC/C=C\CCCCCCCC(=O)OC[C@H]1OCCC[C@H]1OP(=O)(O)OC[C@H](N)C(=O)O` (as salt: TFA) [Example 15, (9Z)-Octadeca-9-enoic acid (2R,3R)-3-[((2S)-2-amino-2-carboxy-ethoxy)-hydroxy-phosphoryloxy]-tetrahydropyran-2-ylmethyl ester], which melting point is on record?
**A.** The melting point was 70 to 80 °C.

**Q.** For `N[C@@H](COP(=O)(O)OC[C@H]1OCCC[C@H]1OC(=O)CCc1ccccc1OCc1cccc(Oc2ccccc2)c1)C(=O)O` (as salt: TFA) [Example 18], which melting point is on record?
**A.** Its melting point is 65 to 75 °C.

**Q.** With `CCCCCCCC/C=C\CCCCCCCC(=O)OC[C@H]1OCCC[C@@H]1OP(=O)(O)OC[C@H](N)C(=O)O` (as salt: TFA) [Example 20, (9Z)-Octadeca-9-enoic acid (2R,3S)-3-[((2S)-2-amino-2-carboxy-ethoxy)-hydroxy-phosphoryloxy]-tetrahydro-pyran-2-ylmethyl ester] as the compound, how does the melting point read?
**A.** The melting point was 70 to 80 °C.

**Q.** With `CCCCCCCCCCCOc1ccccc1CCC(=O)OC[C@H]1OCCC[C@@H]1OP(=O)(O)OC[C@H](N)C(=O)O` (as salt: TFA) [Example 21, (2S)-2-amino-3-(hydroxyl-{(2R,3S)-2-[3-(2-undecyloxy-phenyl)-propionyloxymethyl]-tetrahydro-pyran-3-yloxy}-phosphoryloxy)-propionic acid] as the compound, how does the melting point read?
**A.** Its melting point is 70 to 86 °C.

**Q.** Which melting point does the source give for `C[C@H](OP(=O)(O)OC[C@H]1OCCC[C@@H]1OC(=O)CCc1ccccc1OCc1cccc(Oc2ccccc2)c1)[C@H](N)C(=O)O` (as salt: TFA) [Example 27, (2S,3S)-2-amino-3-[hydroxyl-((2R,3S)-3-{3-[2-(3-phenoxy-benzyloxy)-phenyl]-propionyloxy}-tetrahydro-pyran-2-ylmethoxy)-phosphoryloxy]-butyric acid] here?
**A.** Its melting point is 75 to 86 °C.

**Q.** For `C[C@H](OP(=O)(O)OC[C@H]1OCCC[C@H]1OC(=O)CCc1ccccc1OCc1cccc(Oc2ccccc2)c1)[C@H](N)C(=O)O` (as salt: TFA) [Example 28, (2S,3S)-2-amino-3-[hydroxyl-((2R,3R)-3-{3-[2-(3-phenoxy-benzyloxy)-phenyl]-propionyloxy}-tetrahydro-pyran-2-ylmethoxy)-phosphoryloxy]-butyric acid], which melting point is on record?
**A.** The melting point was 62 to 72 °C.

**Q.** Which melting point does the source give for `C[C@H](OP(=O)(O)O[C@H]1CCCO[C@@H]1COC(=O)CCc1ccccc1OCc1cccc(Oc2ccccc2)c1)[C@H](N)C(=O)O` (as salt: TFA) [Example 29, (2S,3S)-2-amino-3-[hydroxy-((2R,3S)-2-{3-[2-(3-phenoxybenzyloxy)-phenyl]-propionyloxymethyl}-tetrahydro-pyran-3-yloxy)-phosphoryloxy]-butyric acid] here?
**A.** The melting point was 42 to 54 °C.

**Q.** Which melting point does the source give for `C[C@H](OP(=O)(O)O[C@@H]1CCCO[C@@H]1COC(=O)CCc1ccccc1OCc1cccc(Oc2ccccc2)c1)[C@H](N)C(=O)O` (as salt: TFA) [Example 30, (2S,3S)-2-amino-3-[hydroxy-((2R,3R)-2-{3-[2-(3-phenoxy-benzyloxy)-phenyl]-propionyloxymethyl}-tetrahydro-pyran-3-yloxy)-phosphoryloxy]-butyric acid] here?
**A.** Its melting point is 52 to 60 °C.

**Q.** For `COC[C@H](COC(=O)CCc1ccccc1OCc1cccc(Oc2ccccc2)c1)OP(=O)(O)OC[C@H](N)C(=O)O` (as salt: TFA) [Example 31, (2S)-2-amino-3-[hydroxy-((1R)-1-methoxymethyl-2-{3-[2-(3-phenoxy-benzyloxy)-phenyl]-propionyloxy}-ethoxy)-phosphoryloxy]-propionic acid], which melting point is on record?
**A.** Its melting point is 51.5 to 53.5 °C.

Reference: US9469665B2, “Compound having lysophosphatidylserine receptor function modulation activity” (THE UNIVERSITY OF TOKYO, priority 2013, dated 2016)
